pIC50: −log10 of the molar value.
Assays:
NO = NO inhibition, ELISA kit; format: biochemical; details: mean ± SD, average of three determinations
Procedure: (§1) The 50% inhibitory concentration (IC50) values were calculated from the concentration-inhibition response curve.
(§2) Cyclooxygenases (COX-1 and COX-2) were measured by an enzyme immunoassay (EIA) kit (Cayman Chemical, Ann Arbor, MI, USA) according to the manufacturer’s instructions. TNF-R2, NF-KB, and NO were measured by ELISA kit (#79756, BPS Bioscience, USA), (#CSB-EL015761HU, Cusabio, China).

TNF-R2 = target: T1, TNF-R2 (Homo sapiens, UniProt P20333); test: TNF-R2 binding activity, ELISA kit; details: mean ± SD, average of three determinations
T1 construct: purchased BPS Bioscience 79756
T1 sequence (P20333 23-257 limits assumed): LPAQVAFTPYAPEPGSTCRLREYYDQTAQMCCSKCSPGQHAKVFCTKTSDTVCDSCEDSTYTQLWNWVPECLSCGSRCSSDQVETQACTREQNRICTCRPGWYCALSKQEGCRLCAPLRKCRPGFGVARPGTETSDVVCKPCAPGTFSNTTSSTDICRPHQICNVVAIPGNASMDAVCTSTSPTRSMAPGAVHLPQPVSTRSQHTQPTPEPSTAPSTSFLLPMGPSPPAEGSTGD

NF-KB = NF-KB inhibition, ELISA kit; format: biochemical; details: for NF- KB IC50 ± SD: mean ± SD, average of three determinations
Procedure: as §1, §2

COX-1 = COX-1 (Ovis aries, UniProt P05979); set-up: method as in ref 15 (Zhang et al.); details: ref 15 (Zhang et al.); cited from earlier work
Sequence of COX-1 (P05979 25-600): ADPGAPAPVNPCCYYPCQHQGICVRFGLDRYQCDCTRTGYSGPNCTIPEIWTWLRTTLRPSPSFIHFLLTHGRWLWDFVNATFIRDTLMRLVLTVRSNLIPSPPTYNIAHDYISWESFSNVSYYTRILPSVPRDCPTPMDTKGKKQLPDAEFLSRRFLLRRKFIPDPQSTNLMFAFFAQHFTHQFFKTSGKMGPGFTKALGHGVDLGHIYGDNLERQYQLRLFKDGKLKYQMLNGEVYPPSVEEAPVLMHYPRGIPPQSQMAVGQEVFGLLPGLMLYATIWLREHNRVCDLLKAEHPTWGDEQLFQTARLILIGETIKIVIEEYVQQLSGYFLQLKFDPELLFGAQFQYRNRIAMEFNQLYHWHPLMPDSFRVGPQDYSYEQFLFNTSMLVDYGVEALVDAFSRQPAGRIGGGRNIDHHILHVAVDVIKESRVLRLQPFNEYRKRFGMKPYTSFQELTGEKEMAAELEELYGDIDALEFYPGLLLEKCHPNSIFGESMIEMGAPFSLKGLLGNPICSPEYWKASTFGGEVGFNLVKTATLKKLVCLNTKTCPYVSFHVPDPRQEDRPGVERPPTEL

COX-2 [1] = target: T2, COX-2 (Homo sapiens, UniProt P35354); set-up: purchased Cayman Chemical; method as in ref 15 (Zhang et.al 2006); details: ref 15 (Zhang et.al 2006); cited from earlier work
T2 sequence (P35354 18-604): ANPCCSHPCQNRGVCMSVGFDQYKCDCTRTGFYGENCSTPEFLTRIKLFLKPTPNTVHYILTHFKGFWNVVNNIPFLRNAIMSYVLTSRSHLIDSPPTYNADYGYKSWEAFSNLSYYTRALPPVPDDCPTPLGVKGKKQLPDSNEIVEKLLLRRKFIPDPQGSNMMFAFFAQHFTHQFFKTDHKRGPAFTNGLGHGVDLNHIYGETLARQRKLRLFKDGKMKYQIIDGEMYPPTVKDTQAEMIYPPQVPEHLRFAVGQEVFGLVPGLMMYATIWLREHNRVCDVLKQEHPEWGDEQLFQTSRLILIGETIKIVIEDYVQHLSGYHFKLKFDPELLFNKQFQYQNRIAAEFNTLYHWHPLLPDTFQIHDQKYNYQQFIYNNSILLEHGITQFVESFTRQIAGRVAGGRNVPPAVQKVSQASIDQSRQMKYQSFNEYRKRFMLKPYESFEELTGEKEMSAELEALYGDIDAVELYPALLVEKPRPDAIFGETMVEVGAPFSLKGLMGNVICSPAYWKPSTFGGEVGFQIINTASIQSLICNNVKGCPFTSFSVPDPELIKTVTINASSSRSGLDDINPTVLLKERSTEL

COX-2 [2] = target: T2, COX-2; test: COX-2 inhibition, enzyme immunoassay (EIA) kit
Procedure: All enzyme inhibition activities were performed in triplicate and were examined using the sample t-test using the SPSS 26.0 program at (p < 0.05) (Table 1).

Structure (SMILES)	NO IC50 ± SD (NO)	pIC50 (TNF-R2)	Suppression of NF-KB (in words) (NF-KB)	NF- KB IC50 ± SD (NF-KB)	Inhibitory effects on COX-1 (in words) (COX-1)	Inhibitory activity against COX-2 (in words) (COX-2 [1])	COX-2 inhibitory activity (in words) (COX-2 [2])	pIC50 (COX-2 [2])
O=[N+]([O-])c1cccc2cn[nH]c12 [7-nitroindazole, 7-nitroindazole, reference compound]	49.20 ± 0.80 µg/mL							
COc1cc(O)c2c(c1)O[C@H](c1ccc(O)cc1)CC2=O [Compound C1, (2S)-5,4'-dihydroxy-7-methoxyflavanone]	82.00 ± 1.06 µg/mL	7.51	significantly moderate suppression	10.07 ± 0.09 pg/mL	moderate inhibitory effects	no inhibitory activity	moderate inhibitory activity	4.95
O=C(O)/C=C/c1ccccc1 [Compound C2, (E)-cinnamic acid]	66.00 ± 0.69 µg/mL	7.29	significantly moderate suppression	8.77 ± 0.07 pg/mL				4.46
COc1cc(O)c2c(c1)O[C@H](c1ccc(O)cc1)[C@@H](O)C2=O [Compound C4, 7-O-methyl aromadendrin]	76.40 ± 1.74 µg/mL	7.56	significantly moderate suppression	9.33 ± 0.03 pg/mL	moderate inhibitory effects	no inhibitory activity	moderate inhibitory activity	5.07
O=C(C=Cc1ccccc1)OCC1OC(OC(=O)C=Cc2ccccc2)C(O)C(O)C1O [Compound C5, 1,6-dicinnamoyl-O-α-D-glucopyranoside]	38.00 ± 0.04 µg/mL	7.93		6.07 ± 0.07 pg/mL				5.58
COc1cc(/C=C/C(=O)CC(=O)/C=C/c2ccc(O)c(OC)c2)ccc1O [Curcumin, reference compound]				7.80 ± 0.03 pg/mL				

— PMC9902548, “In silico and in vitro anti-inflammatory study of phenolic compounds isolated from Eucalyptus maculata resin” (Scientific Reports, 2023)
